From PubChem BioAssay AID192 (DTP/NCI, 2004)
“And” between values parts separate entries of the source, which are not always exact repeats. Identical values can stand only once. Toxic doses and inconclusive results are not listed. Rule for the calls: active = survival T/C of 150% or more; inactive = T/C below 125% in these data.

Tested on: BDF1 mice, B16 melanoma ip, median survival T/C
Test: NCI In Vivo Anticancer Drug Screen. Data for tumor model B16 Melanoma (intraperitoneal) in B6D2F1 (BDF1) mice
Settings: endpoint: median survival time, higher = longer survival
Method in brief: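 Transplantable tumor model; survival or tumor size measured; reported as T/C, treated over vehicle control.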

[1] = dose: 12.5 mg/kg/injection, schedule: Q01DX009 (ip), vehicle: Klucel (hydroxypropylcellulose) (HPC)
[2] = dose: 25.0 mg/kg/injection, schedule: Q01DX009 (ip), vehicle: Klucel (hydroxypropylcellulose) (HPC)
[3] = dose: 50.0 mg/kg/injection, schedule: Q01DX009 (ip), vehicle: Klucel (hydroxypropylcellulose) (HPC)
[4] = dose: 100.0 mg/kg/injection, schedule: Q01DX009 (ip), vehicle: Klucel (hydroxypropylcellulose) (HPC)
[5] = dose: 200.0 mg/kg/injection, schedule: Q01DX009 (ip), vehicle: Klucel (hydroxypropylcellulose) (HPC)
[6] = dose: 400.0 mg/kg/injection, schedule: Q01DX009 (ip), vehicle: Klucel (hydroxypropylcellulose) (HPC)

Measured: T/C

Nc1nc(-c2ccccc2N=NN2CCN(N=Nc3ccccc3-c3nc(N)c4ccccc4n3)CC2)nc2ccccc12
inactive: dose: 3.12 mg/kg/injection, schedule: Q01DX009 (ip), vehicle: Klucel (hydroxypropylcellulose) (HPC) 95 % of control | dose: 6.25 mg/kg/injection, schedule: Q01DX009 (ip), vehicle: Klucel (hydroxypropylcellulose) (HPC) 92 % of control | [1] 107 % of control | [2] 107 % of control | [3] 113 % of control

CC[C@@]1(O)C[C@H](OC2CC(N(C)C)C(OC3CC(O)C(OC4CCC(=O)C(C)O4)C(C)O3)C(C)O2)c2c(cc3c(c2O)C(=O)c2c(O)ccc(O)c2C3=O)[C@H]1C(=O)OC (stereo partly drawn)
inactive: dose: 0.25 mg/kg/injection, schedule: Q01DX009 (ip), vehicle: saline 119 % of control | dose: 0.25 mg/kg/injection, schedule: Q01DX009 (ip), vehicle: water 110 % of control | dose: 0.37 mg/kg/injection, schedule: Q01DX009 (ip), vehicle: saline 102 % of control | dose: 0.5 mg/kg/injection, schedule: Q01DX009 (ip), vehicle: saline 114 % of control | dose: 0.5 mg/kg/injection, schedule: Q01DX009 (ip), vehicle: water 120 % of control | dose: 0.75 mg/kg/injection, schedule: Q01DX009 (ip), vehicle: saline 113 % of control | dose: 0.75 mg/kg/injection, schedule: Q04DX003 (ip), vehicle: saline 91 % of control | dose: 1.5 mg/kg/injection, schedule: Q04DX003 (ip), vehicle: saline 91 % of control and 106 % of control | dose: 2.0 mg/kg/injection, schedule: Q01DX009 (ip), vehicle: saline 107 % of control | dose: 3.0 mg/kg/injection, schedule: Q04DX003 (ip), vehicle: saline 108 % of control and 115 % of control | dose: 3.6 mg/kg/injection, schedule: Q01DX001 (ip), vehicle: water 100 % of control and 102 % of control | dose: 6.0 mg/kg/injection, schedule: Q01DX001 (ip), vehicle: water 92 % of control and 102 % of control | dose: 6.0 mg/kg/injection, schedule: Q04DX003 (ip), vehicle: saline 88 % of control and 97 % of control | dose: 10.0 mg/kg/injection, schedule: Q01DX001 (ip), vehicle: water 101 % of control and 102 % of control | dose: 16.7 mg/kg/injection, schedule: Q01DX001 (ip), vehicle: water 106 % of control
active: dose: 1.0 mg/kg/injection, schedule: Q01DX009 (ip), vehicle: saline 157 % of control and 168 % of control | dose: 1.5 mg/kg/injection, schedule: Q01DX009 (ip), vehicle: saline 150 % of control

CC(=O)OC(C)C(=O)C(Cl)(Cl)Cl (stereo not drawn)
inactive: [4] 96 % of control | [5] 107 % of control | [6] 107 % of control

O=C(C(=O)c1ccc(Br)cc1)c1ccc(Br)cc1
inactive: [1] 108 % of control | [2] 107 % of control | [3] 91 % of control

Clc1ccc(Br)c(Cl)c1
inactive: [4] 93 % of control | [5] 93 % of control | [6] 93 % of control

Oc1ccc(SCc2ccc(NCc3ccccc3)cc2)cc1
inactive: dose: 12.5 mg/kg/injection, schedule: Q01DX009 (ip), vehicle: other 92 % of control | dose: 12.5 mg/kg/injection, schedule: Q01DX009 (ip), vehicle: saline + alcohol 105 % of control | dose: 25.0 mg/kg/injection, schedule: Q01DX009 (ip), vehicle: other 97 % of control | dose: 25.0 mg/kg/injection, schedule: Q01DX009 (ip), vehicle: saline + alcohol 103 % of control | dose: 50.0 mg/kg/injection, schedule: Q01DX009 (ip), vehicle: other 102 % of control | dose: 50.0 mg/kg/injection, schedule: Q01DX009 (ip), vehicle: saline + alcohol 99 % of control | dose: 100.0 mg/kg/injection, schedule: Q01DX009 (ip), vehicle: other 104 % of control | dose: 100.0 mg/kg/injection, schedule: Q01DX009 (ip), vehicle: saline + alcohol 107 % of control | dose: 200.0 mg/kg/injection, schedule: Q01DX009 (ip), vehicle: other 102 % of control | dose: 200.0 mg/kg/injection, schedule: Q01DX009 (ip), vehicle: saline + alcohol 103 % of control | dose: 400.0 mg/kg/injection, schedule: Q01DX009 (ip), vehicle: other 96 % of control | dose: 400.0 mg/kg/injection, schedule: Q01DX009 (ip), vehicle: saline + alcohol 99 % of control
